“Also recorded” adds a separate entry of the source.
What was measured:
hOR17-40 = molecular target: T1, hOR17-40 (Homo sapiens, UniProt P47881); test: Ca2+ imaging of HEK293 cells transfected with pOR17-40; type: cell-based
T1 construct: pOR17-40 (Ausschnitt) mit der vollständigen cDNA von hOR17-40; expressed in transfected cells; host or cells: HEK293, plasmid pOR17-40
T1 sequence (P47881 1-315): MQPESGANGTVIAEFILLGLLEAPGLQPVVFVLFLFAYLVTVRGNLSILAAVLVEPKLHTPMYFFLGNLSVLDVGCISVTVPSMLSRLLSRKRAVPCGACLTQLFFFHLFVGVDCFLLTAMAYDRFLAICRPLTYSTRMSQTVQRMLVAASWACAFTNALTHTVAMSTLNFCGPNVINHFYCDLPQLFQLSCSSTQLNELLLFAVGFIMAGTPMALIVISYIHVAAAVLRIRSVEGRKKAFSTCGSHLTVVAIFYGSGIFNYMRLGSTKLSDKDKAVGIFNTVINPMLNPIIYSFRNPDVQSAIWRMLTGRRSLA

hOR17-4 = test: Ca2+ imaging (Fura-2) of HEK293 cells transiently transfected with pOR17-4 (chimeric receptor); type: cell-based, human
Text: Es wird vermutet, dass die Transmembrandomänen III-VI eine Bindungstasche zum Binden von Agonisten bilden (s. S. Firestein, Nature 413, 211-218 (2001)). Um diese Vermutung für den Rezeptor hOR17-4 zu überprüfen wurde ein für die vermuteten Transmembrandomänen III bis VI codierender Abschnitt der für hOR17-4 codierenden cDNA in einem Shuttle-Expressions-Vektor (pOLF-Express) kloniert. Der Expressionsvektor pOLF-Express umfasst die für die N- und C-terminalen Regionen von hOR17-40 codierenden DNA-Abschnitte (C. H. Wetzel et al., Journal of Neuroscience 19, 7426-7433 (1999)). Das resultierende chimäre Rezeptorprotein sollte die Agonistenspezifität des vollständigen Rezeptors hOR17-4 besitzen.
HEK293-Zellen wurden in MEM (Life Technologies, Gaithersburg, MD), das mit 10 % hitze-inaktiviertem fetalem Kälber-Serum angereichert war, in einem Inkubator bei 37 °C in einer Atmosphäre aus 95 % befeuchteter Luft und 5 % CO2 kultiviert. Semikonfluente Zellen wurden in 35 mm Gefäßen (Falcon) mittels Calciumphosphat-Präzipitation (Zufall et al., PNAS 90 (1993), 9335-9339) unter Verwendung jeweils des Plasmids pOR17-4 bzw. pOR17-4v transfiziert. Die Transfektionseffizienz - typischerweise 10 % - wurde histochemisch mit dem Reporterplasmid pCH110 (Pharmacia, Uppsala, Schweden) überprüft, das für β-Galactosidase codiert. Messungen wurden 48 bis 72 Stunden nach der Transfektion durchgeführt. Die Transfektionseffizienz kann mit einem für GFP, einem grün fluoreszierenden Protein, codierenden Reporterplasmid ebenfalls überprüft werden.
Die Rezeptor-Aktivierung in HEK293-Zellen führt zu einem vorübergehenden Anstieg der cytosolischen Ca^2+-Konzentration, die auf der Einzelzell-Ebene unter Verwendung des Ca^2+-sensitiven Farbstoffes Fura-2 (Fura-2 AM, Molecular Probes Europe BV, Leiden, Niederlande; Ladekonzentration 3-4 µg/ml; Ladezeit ca. 30 min) und ratiofluorometrischen Bildgebungstechniken (Imaging-Experimente) detektiert wurden.
Die Ca^2+-imaging-Experimente wurden auf dem Träger eines invertierten Zeiss-Mikroskopes durchgeführt, das für die ratiofluorometrische Bildgebung mit einer Xenon-Bogenlampe, einem Vielfach-Wellenlängen-Illuminations-System POLYCH-ROM II zur Anregung, einer gekühlten charge-coupled device (CCD)-Kamera und einer WinNT-basierten T.I.L.L.-Vision-Software zum Sammeln und raum- und zeitabhängigen Quantifizieren Ca^2+-abhängiger Fluoreszenz-Signale (F340/F380-Verhältnis) ausgestattet war. HEK293-Zellen wurden mit 32-facher, Spermazellen mit 63-facher Vergrößerung beobachtet.
HEK293- und Spermazellen wurden unter Verwendung eines speziellen Applikations-Systems, das es gestattete, vorübergehend alle Zellen im Blickfeld aus einem von sechs benutzergewählten Kapillarröhrchen zu überspülen, Geruchs- und/oder Wirkstoffen (Testlösungen) ausgesetzt. Der Wechsel zwischen den Testlösungen erfolgte nahezu sofort; auch trat im Wesentlichen keine Wirkungsverzögerung nach dem Wechsel auf, weil die Röhrchenspitzen zum optischen Feld eng benachbart waren. Zwischen den Applikationen von Testlösungen überspülte ein Pufferlösungsstrom kontinuierlich alle Zellen im Gefäß, um jedwede potentielle Hintergrund-Anreicherung von Testlösungen (Geruchs- bzw. Wirkstoffen) zu minimieren. Alle Lösungen wurden bei Raumtemperatur appliziert. Alle verwendeten Geruchsstoffe stammten von Dr. T. Gerke, Henkel KGaA, Düsseldorf, FRG, andere Wirkstoffe wurden von Sigma gekauft. Zur Zusammensetzung der Henkel 100-Mischung vergleiche C. H. Wetzel et al., Journal of Neuroscience 19, 7426-7433 (1999).
Alle auf die potentielle Aktivierung von hOR17-4 untersuchten Geruchsstoffe wurden wenigstens in drei verschiedenen Reihen von Transfektionsexperimenten getestet. […] Geruchsstoffe, die nicht in wenigstens 2 % aller HEK293-Zellen messbare Ca^2+-Konzentrationssteigerung auslösten, wurden nicht zu den hOR17-4-spezifischen Agonisten gezählt, ebenso diejenigen wenigen der untersuchten Komponenten, die ein unspezifisches Ca^2+-Signal in fast jeder Zelle hervorriefen. […]

Row | Ca^2+-Signale (hOR17-40) (hOR17-40) | inhibitorischer Effekt auf das Helional-induzierte Antwortmuster (hOR17-40; pre-incubation) | SMILES | Induktion einer Ca^2+-Konzentrationssteigerung (hOR17-4; agonist concentration reduced to 10^-6 M) | Wirksamkeit (Rangordnung der Agonisten) (hOR17-4; ranking by amplitude normalised to ATP and by responding cells relative to Cyclamal ca. 5 mM) | Rezeptoraktivierung (Ca^2+-Antwort) (hOR17-4; single odorant about 500 µM, pOR17-4-transfected HEK293 cells) | Zellen, die auf Bourgeonal antworteten, mit vollständig inhibierter Rezeptoraktivierung (hOR17-4; pre-incubation 30 s or longer before Bourgeonal) [von 28] | Einfluss auf die hOR17-4-Rezeptoraktivierung durch Bourgeonal (hOR17-4; single components of Mix D, pre-incubation)
1 | keine Ca^2+-Signale |  | CC(C)(C)c1ccc(CCC=O)cc1 [Bourgeonal] | deutlich | wirksamere Agonisten; also recorded: der wirksamste getestete Agonist | Fähigkeit der Substanzen, den Rezeptor zu aktivieren |  | 
2 |  | keinen inhibitorischen Effekt | CCCCCCCCCCC=O [n-Undecanal] |  |  |  | 26 | vollständig inhibiert
